Laboratory results: US12486298B2, “Fucosyltransferase specific inhibition using fucose mimetics” (THE FLORIDA INTERNATIONAL UNIVERSITY BOARD OF TRUSTEES, priority 2020, dated 2025)
“Also recorded” adds a separate entry of the source.

Columns and labels:
[1] = target: T1, fucosyltransferase VII (FTVII) (Homo sapiens, UniProt Q11130); assay: FTVII exofucosylation of RPMI-8402 cells, sLe^x by flow cytometry; assay type: cell-based
T1 sequence (Q11130 37-342 limits assumed): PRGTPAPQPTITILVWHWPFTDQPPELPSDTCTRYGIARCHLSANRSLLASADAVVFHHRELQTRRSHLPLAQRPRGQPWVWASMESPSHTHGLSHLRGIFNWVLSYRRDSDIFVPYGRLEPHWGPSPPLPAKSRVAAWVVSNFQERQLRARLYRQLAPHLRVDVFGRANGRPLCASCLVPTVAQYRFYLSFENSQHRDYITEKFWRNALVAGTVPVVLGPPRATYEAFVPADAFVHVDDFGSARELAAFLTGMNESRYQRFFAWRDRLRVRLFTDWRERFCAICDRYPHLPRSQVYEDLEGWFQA
Procedure: (§1) A Canto II (BD Biosciences) flow cytometer was utilized for flow cytometry and the data acquired was analyzed using FlowJo Software (Treestar). Cells were stained using antibodies specific to sLe^X (Alexa-Fluor 488 Mouse Anti-Human CD15s (BD Biosciences)), or Le^X (APC anti-human CD15 (SSEA-1) Antibody (BioLegend)).
Cells of the RPMI-8402 cell line and MSC cell line were treated with either 0.3 ug of fucosyltransferase VI (FTVI), 2.7 ug of fucosyltransferase VII (FTVII), 1.0 ug fucosyltransferase IX (FTIX) or buffer-only at 37° C. for 60 minutes. All reactions contained at 1×10^6 cells/30 ul in HBSS with 10 mM Hepes, 0.1% Human Serum Albumin, and 1.0 mM GDP fucose (GDP-Fuc) (Carbosynth) and the appropriate fucosytransferase. Then, mimetic 1 was added to each of the treatment groups in molar equivalents with respect to GDP-Fuc with each of the fucosytransferases. The treatment groups were as follows: 1:1 GDP-Fuc to mimetic 1 (i.e., 1.0 mM GDP-Fuc and 1.0 mM mimetic), 1:2 GDP-Fuc to mimetic 1 (i.e., 1.0 mM GDP-Fuc and 2.0 mM mimetic), or preincubated in presence of FT with a 2.0 mM solution of the mimetic 1 for 45 minutes followed by addition of a 1.0 mM solution of GDP-Fuc for 1 hour. Concentrations of the various FTs were utilized that would maximize the MFI to allow the detection of the efficacy of mimetic 1 to inhibit the various enzymes.
Exofucosylation is a technique whereby a pertinent FT together with GDP-Fuc is placed in a cell suspension to stereoselectively install fucose on pertinent acceptor cell surface glycan(s). For the case of α-1,3-FTs, this approach provides the ability to pinpoint the effect(s) of mimetic addition on creation of fucosylated glycans Le^x and sLe^x, while keeping the rest of the cell's biological functions and its viability intact. Specifically, this study focused on three α-1,3-FTs that can create sLe^x and Le^x determinants: FTVII, FTIX, and FTVI. To assess enzymatic activity, two cell types were utilized, the human lymphoblastic leukemia cell line RPMI-8402 and human mesenchymal stem cells (MSCs).
Mimetic 1 (FIG. 1) was tested as an inhibitor of FT-mediated exofucosylation on these cells and the extent of fucosylation was monitored using antibodies that detect the creation of the relevant fucosylated epitopes, i.e., sLe^x or Le^x. Cells were treated directly with reaction buffer containing the relevant FTs together with 1.0 mM GDP-Fuc and cells untreated with FTs (UT) were used as reference reaction negative control (FIGS. 2A, 2B, 2C, 3, 4A and 4B). […]
Moreover, a pre-incubation protocol was also analyzed, wherein the cell suspension was pre-treated with FTVII and a 2.0 mM solution of mimetic 1 followed by addition of 1.0 mM solution of GDP-Fuc (Pre).

[2] = target: T2, fucosyltransferase VI (FTVI) (Homo sapiens, UniProt P51993); assay: FTVI exofucosylation of mesenchymal stem cells (MSC), sLe^x and Le^x by flow cytometry; assay type: cell-based; details: MSCs; 1.0 mM GDP-Fuc with 1.0 mM or 2.0 mM mimetic 1
T2 construct: purchased R&D systems
T2 sequence (P51993 35-359 limits assumed): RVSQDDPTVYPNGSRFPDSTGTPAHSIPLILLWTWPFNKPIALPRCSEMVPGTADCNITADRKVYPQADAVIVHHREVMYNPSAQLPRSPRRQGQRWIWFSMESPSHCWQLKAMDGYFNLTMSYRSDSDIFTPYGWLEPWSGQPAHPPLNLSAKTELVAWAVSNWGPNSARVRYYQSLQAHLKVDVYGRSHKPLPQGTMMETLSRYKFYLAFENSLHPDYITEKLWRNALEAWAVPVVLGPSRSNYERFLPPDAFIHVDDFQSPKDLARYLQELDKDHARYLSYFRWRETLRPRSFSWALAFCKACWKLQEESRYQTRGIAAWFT
Procedure: as §1
Cells of the RPMI-8402 cell line and MSC cell line were treated with either 0.3 ug of fucosyltransferase VI (FTVI), 2.7 ug of fucosyltransferase VII (FTVII), 1.0 ug fucosyltransferase IX (FTIX) or buffer-only at 37° C. for 60 minutes. All reactions contained at 1×10^6 cells/30 ul in HBSS with 10 mM Hepes, 0.1% Human Serum Albumin, and 1.0 mM GDP fucose (GDP-Fuc) (Carbosynth) and the appropriate fucosytransferase. Then, mimetic 1 was added to each of the treatment groups in molar equivalents with respect to GDP-Fuc with each of the fucosytransferases. […]
Mimetic 1 (FIG. 1) was tested as an inhibitor of FT-mediated exofucosylation on these cells and the extent of fucosylation was monitored using antibodies that detect the creation of the relevant fucosylated epitopes, i.e., sLe^x or Le^x. […]

concentration of highest inhibition against FTVII ([1]; titration of mimetic 1, 1.0 mM GDP-Fuc, RPMI-8402 cells, bell-shaped curve): 2.0 mM
inhibition of FTVI production of Le^x [2]: clearly inhibited
inhibition of FTVI production of sLe^x [2]: markedly diminished
SMILES: CC1OC2Oc3ccc(CC(=O)O)cc3SC2C(O)C1O (stereo not drawn) [mimetic 1]
inhibition of FTVII-driven sLe^x expression ([1]; RPMI-8402 cells, 1.0 mM GDP-Fuc with 1.0 mM or 2.0 mM mimetic 1): able to inhibit FTVII-driven sLe^x expression
extent of inhibition, FTVII compared with FTVI ([1]; at 2.0 mM mimetic 1, 1.0 mM GDP-Fuc): slightly higher extent of inhibition on FTVII over FTVI
inhibition of FTVII sLe^x production after pre-incubation ([1]; pre-incubation of FTVII with 2.0 mM mimetic 1 for 45 minutes, then 1.0 mM GDP-Fuc for 1 hour): significant inhibition of sLe^x production; also recorded: inhibited more completely
